Measurements taken from patent US7419984B2, “Pyrimidines and uses thereof” (Cell Therapeutics, Inc., priority 2002, dated 2008).

Target: T1, human LPAAT-β (Homo sapiens, UniProt O15120)
T1 construct: the full-length human LPAAT-β cDNA was amplified by PCR; poly-histidine tag (N); made in house; host or cells: Sf9 insect cells (baculovirus, pFastBac HTc); the membrane fraction was used as the enzyme
T1 sequence (O15120 24-278): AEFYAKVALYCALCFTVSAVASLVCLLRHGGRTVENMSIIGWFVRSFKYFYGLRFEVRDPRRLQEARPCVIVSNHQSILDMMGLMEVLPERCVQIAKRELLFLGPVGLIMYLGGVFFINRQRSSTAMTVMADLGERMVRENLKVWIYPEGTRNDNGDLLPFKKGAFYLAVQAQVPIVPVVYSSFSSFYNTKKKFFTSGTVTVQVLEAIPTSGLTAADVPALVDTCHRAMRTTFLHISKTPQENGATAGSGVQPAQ
Experiment: LPAAT-β cell-free assay
Type: biochemical
Details: Sf9 cell membrane overexpressing recombinant LPAAT-β
Description: For the construction of Baculovirus expression vectors, the full-length human LPAAT-β cDNA was amplified by PCR from the DNA template pCE9.LPAAT-β (West et al., DNA Cell Bid. 16.691-701 (1997)) using the primers 5′-[…] […] […] […]-3′ (olpb1F; SEQ ID NO:1) and 5′-[…] […] […]-3′ (olpb1R; SEQ ID NO:2). The ˜870 bp fragment generated was reamplified by PCR using the primers 5′ […] […] […] […] ATC-3′ (olpb2F; SEQ ID NO:3) and 5′-[…] […] […]-3′ (olpb1R; SEQ ID NO:2). The ˜890 bp fragment generated was then cleaved with Sal I and Xba I for insertion into pFastBac™ HTc vector (Life Technologies, Gaithersberg, M.d.) between the Sal I and Xba I sites for the generation of the plasmid pFB.LPAAT-β. This plasmid was then transformed into E. coli DH10Bac™ (Life Technologies, Gaithersberg, M.d.) for the generation of recombinant Bacmid DNA for transfection in HighFive (Invitrogen, San Diego, Calif.) or SF9 insect cells for the production of recombinant Baculovirus stocks using the protocol described in the Bac-to-Bac® Baculovirus Expression System (Life Technologies, Gaithersberg, M.d.), a eukaryotic expression system for generating recombinant baculovirus through site-specific transposition in E. coli. Viral stocks harvested from the transfected cells can then be used to infect fresh insect cells for the subsequence expression of LPAAT-β fusion protein with a poly-histidine tag and a myc-epitope near its N-terminus. The membrane fraction from these Sf9 cells would be the source of LPAAT enzyme.
For the preparation of membranes from Sf9 Cells, all steps are performed on ice or at 4° C. Sf9 cell pellets (˜10^8 cells) were thawed and resuspended in 1-2 ml of buffer A (20 mM Hepes, pH 7.5, 1 mM DTT, 1 mM EDTA, 20% w/v glycerol, 1 mM Benzamidine, 1 μg/ml soybean trypsin inhibitor (SBTI), 1 μug/ml pepstatin A) w/o DTT but with 1 mM Pefabloc. The cells were lysed by sonication using a Branson Sonifier at output=2, duty cycle=2, 10 pulses each at 10 s. with the tip of small sonicator probe submerged but not touching the walls. DTT was then added to 1 mM from a 1 M stock. The samples were centrifuged at 1500 rpm for 5 min. The low speed supernatant was saved and centrifuged (TLA 100.3 rotor, polycarbonate tubes, 2 ml/tube or 1.5 ml/tube minimum) at 100000×g for 1 hr. The high speed pellet was resuspend in Buffer A with a probe sonicator (10 pulses @ output #2 and duty cycle 20%) as a source of LPAAT enzyme.
LPAAT-β catalyzes the transfer of an acyl group from a donor such as acyl-CoA to LPA. The transfer of the acyl group from acyl-CoA to LPA leads to the release of free CoA, which can be reacted with the thiol reagent, 5,5′-dithiobis(2-nitrobenzoic acid) (DTNB). The reaction between DTNB and the free sulfhydryl group from CoA generates a yellow-colored product, 3-carboxylato-4-nitrothiophenolate (CNP), that absorbs at 413 nm. LPAAT-β derived from Sf9 cell membrane overexpressing LPAAT-β were resuspended in HEPES saline buffer (20 mM HEPES pH 7.5, 150 mM NaCl), 1 mg/ml BSA and 72 μl aliquots were distributed into 96-well microtiter plates. 8 μl of compound of interest at 200 μM dissolved in 100% DMSO was added into each well. […] of 1 mM 18:1-CoA and 1 mM sn-1-18:1 lysoPA was then added to each well to initiate the reaction and allowed to run at room temperature for 25 min. 100 μl of 1 mM DTNB in 100% ethanol was then added to each well to quench the reaction and for color development. The absorbance at 405 nm, measured using a spectrophotometer plate reader, is proportional to the activity of LPAAT-2 in the sample. This colorimetric assay was used for the high throughput screening of LPAAT inhibitors.
The radiometric assay was carried out in Sf9 cell membrane overexpressing LPAAT-β resuspended in HEPES-saline buffer, pH 7.5, 1 mg/ml BSA, 1 mM EDTA and 200 μM [^14C]18:1-CoA and 200 μM sn-1-18:1 lysoPA.

Nc1nc(Nc2ccc(Cl)c(C(F)(F)F)c2)cc(-c2cc(Cl)ccc2Cl)n1 [Example 179, N*4*-(4-Chloro-3-trifluoromethyl-phenyl)-6-(2,5-dichloro-phenyl)-pyrimidin-2,4-diamine]
IC50: 180 nM

CCOc1ccc(Br)cc1-c1cc(Nc2ccc(C(=O)NO)cc2)nc(N)n1 [Example 183, 4-[2-Amino-6-(5-bromo-2-ethoxy-phenyl)-pyrimidin-4-ylamino]-N-hydroxy-benzamide]
IC50: 88 nM

Cc1ccc(Cl)cc1-c1cc(Nc2ccc3[nH]nnc3c2)nc(N)n1 [Example 125, N*4*-(1H-Benzotriazol-5-yl)-6-(5-chloro-2-methylphenyl)pyrimidine-2,4-diamine]
IC50: 90 nM

CCOc1ccc(Cl)cc1-c1cc(Nc2ccc(-c3cnco3)cc2)nc(N)n1 [Example 66, 6-(5-Chloro-2-ethoxy-phenyl)-N*4*-(4-oxazol-5-yl-phenyl)-pyrimidine-2,4-diamine]
IC50: 450 nM

CCOc1ccc(Cl)cc1-c1cc(Nc2ccc(CC(C)(C)O)cc2)nc(N)n1 [Example 120, 1-{4-[2-amino-6-(5-chloro-2-ethoxyphenyl)pyrimidin-4-ylamino]phenyl}-2-methyl-propan-2-ol]
IC50: 180 nM

CC(C)Oc1ccc(Br)cc1-c1cc(Nc2ccc(CCO)cc2)nc(N)n1 [Example 141, 2-{4-[2-Amino-6-(5-bromo-2-isopropoxy-phenyl)-pyrimidin-4-ylamino]-phenyl}-ethanol]
IC50: 390 nM

CCOc1ccc(Cl)cc1-c1cc(Nc2ccc(CO)cc2)nc(NC)n1 [Example 65, {4-[6-(5-Chloro-2-ethoxy-phenyl)-2-methylamino-pyrimidin4-ylamino]-phenyl}-methanol]
IC50: 140 nM

Cc1ccc(Cl)cc1-c1cc(Nc2ccc3c(c2)C(=O)NC3=O)nc(N)n1 [Example 79, 5-[2-Amino-6-(5-chloro-2-methyl-phenyl)-pyrimidin4-ylamino]-isoindole-1,3-dione]
IC50: 900 nM

COc1ccc(Cl)cc1-c1cc(Nc2ccc(O)cc2)nc(N)n1 [Example 6, 4-[2-Amino-6-(5-chloro-2-methoxy-phenyl)-pyrimidin-4-ylamino]-phenol]
IC50: 450 nM

Nc1nc(Nc2ccc(Cl)cc2)cc(-c2cc(Cl)ccc2OCC2CCCCC2)n1 [Example 168, 6-(5-Chloro-2-cyclohexylmethoxy-phenyl)-N*4*-(4-chloro-phenyl)-pyrimidine-2,4-diamine]
IC50: 16 nM

CCCOc1ccc(Br)cc1-c1cc(Nc2ccc(Cl)cc2)nc(N)n1 [Example 135, 6-(5-Bromo-2-propoxy-phenyl)-N*4*-(4-chloro-phenyl)-pyrimidine-2,4-diamine]
IC50: 8 nM

COc1ccc(Cl)cc1-c1cc(N)nc(Nc2ccc(Cl)cc2)n1 [Example 34, 6-(5-Chloro-2-methoxy-phenyl)-N*2*-(4-chloro-phenyl)-pyrimidine-2,4-diamine]
IC50: 2000 nM

Nc1nc(Nc2ccc(Br)cc2)cc(-c2cc(Cl)cc(Cl)c2Cl)n1 [Example 99, N*4*-(4-Bromo-phenyl)-6-(2,3,5-trichloro-phenyl)-pyrimidine-2,4-diamine]
IC50: 130 nM

Cc1ccc(Cl)cc1-c1cc(Nc2ccc(Cl)c(CO)c2)nc(N)n1 [Example 113, {5-[2-Amino-6-(5-chloro-2-methyl-phenyl)-pyrimidin-4-ylamino]-2-chloro-phenyl}-methanol]
IC50: 190 nM

Cc1ccc(Cl)cc1-c1cc(Nc2ccc(C(O)C(F)(F)F)cc2)nc(N)n1 (centres unmarked) [Example 103, 1-{4-[2-Amino-6-(5-chloro-2-methyl-phenyl)-pyrimidin4-ylamino]-phenyl}-2,2,2-trifluoro-ethanol]
IC50: 54 nM

CCOc1ccc(Cl)cc1-c1cc(Nc2ccc(OCCO)cc2)nc(N)n1 [Example 90, 2-{4-[2-Amino-6-(5-chloro-2-ethoxy-phenyl)-pyrimidin-4-ylamino]-phenoxy}-ethanol]
IC50: 780 nM

CCOc1ccc(Br)cc1-c1cc(Nc2cccc(C(N)=O)c2)nc(N)n1 [Example 138, 3-[2-Amino-6-(5-Bromo-2-ethoxy-phenyl)-pyrimidin-4yl-amino]-benzamide]
IC50: 950 nM

COc1ccc(Cl)cc1-c1cc(Nc2ccc(Cl)cc2)nc(C)n1 [Example 38, [6-(5-Chloro-2-methoxy-phenyl)-2-methyl-pyrimidin-4-yl]-(4-chloro-phenyl)-amine]
IC50: 50 nM

COc1ccc(Cl)cc1-c1cc(Nc2ccc3cn[nH]c3c2)nc(C)n1 [Example 40, [6-(5-Chloro-2-methoxy-phenyl)-2-methyl-pyrimidin4-yl]-(1H-indazol-6-yl)-amine]
IC50: 14 nM

CCCCCCOc1ccc(Br)cc1-c1cc(Nc2ccc(Cl)cc2)nc(N)n1 [Example 145, 6-(5-Bromo-2-hexyloxy-phenyl)-N*4*-(4-chloro-phenyl)-pyrimidine-2,4-diamine]
IC50: 5 nM

Nc1nc(Nc2ccc(Cl)cc2)cc(-c2cc(Cl)ccc2OCC(F)(F)F)n1 [Example 89, N*4*-(4-Chloro-phenyl)-6-[5-chloro-2-(2,2,2-trifluoro-ethoxy)-phenyl]-pyrimidine-2,4-diamine]
IC50: 100 nM

COc1ccc(Cl)cc1-c1cc(Nc2ccc([N+](=O)[O-])cc2)nc(N)n1 [Example 11, 6-(5-Chloro-2-methoxy-phenyl)-N*4*-(4-nitro-phenyl)-pyrimidine-2,4-diamine]
IC50: 14 nM

CNC(=O)c1cc(Nc2cc(-c3cc(Br)ccc3C)nc(N)n2)ccc1Br [Example 78, 5-[2-Amino-6-(5-bromo-2-methyl-phenyl)-pyrimidin-4-ylamino]-2-bromo-N-methyl-benzamide]
IC50: 210 nM

Cc1ccc(Br)cc1-c1cc(Nc2ccc(CCO)cc2)nc(N)n1 [Example 100, 2-{4-[2-Amino-6-(5-bromo-2-methyl-phenyl)-pyrimidin-4-ylamino]-phenyl}-ethanol]
IC50: 49 nM

CC(=NO)c1ccc(Nc2cc(-c3cc(Cl)cc(Cl)c3Cl)nc(N)n2)cc1 [Example 147, 1-{4-[2-Amino-6-(2,3,5-trichloro-phenyl)-pyrimidin-4-ylamino]-phenyl}-ethanone oxime]
IC50: 390 nM

COc1ccc(Cl)cc1-c1cc(Nc2ccc3ncsc3c2)nc(N)n1 [Example 8, N*4*-Benzothiazol-6-yl-6-(5-chloro-2-methoxy-phenyl)-pyrimidine-2,4-diamine]
IC50: 270 nM

Cc1ccc(Cl)cc1-c1cc(Nc2ccc(F)cc2)nc(N)n1 [Example 97, 6-(5-Chloro-2-methyl-phenyl)-N*4*-(4-fluoro-phenyl)-pyrimidine-2,4-diamine]
IC50: 73 nM

Cc1ccc(Cl)cc1-c1cc(Nc2ccc(CCCO)cc2)nc(N)n1 [Example 109, 3-{4-[2-Amino-6-(5-Chloro-2-methyl-phenyl)-pyrimidin-4-ylamino]-phenyl}-propan-1-ol]
IC50: 850 nM

CCc1ccc(Cl)cc1-c1cc(Nc2ccc([N+](=O)[O-])cc2)nc(N)n1 [Example 169, 6-(5-Chloro-2-ethyl-phenyl)-N*-4*-(4-nitro-phenyl)-pyrimidine-2,4-diamine]
IC50: 93 nM
